# Read-outs that look alike come from different tables or passages of the source.
# What was measured:
# aldose reductase = target: T1, aldose reductase (Bos taurus, UniProt P16116); experiment: In vitro inhibition of aldose reductase (modified Hayman and Kinoshita procedure, enzyme from bovine lens); format: biochemical; settings: read-out: % Inhibition in Vitro
# T1 construct: preparation of the enzyme from bovine lens; from tissue; host or cells: bovine lens
# Text: In the present case the procedure of Hayman and Kinoshita was modified in that the final chromatography step was omitted in the preparation of the enzyme from bovine lens.
# galactosemic rats = experiment: Lowering of galactitol (dulcitol) accumulation in tissues of galactosemic rats; format: in vivo, rat (Sprague-Dawley); settings: for % Lowering of dulcitol accumulation In Vivo, % D (diaphragm) / % Lowering of dulcitol accumulation In Vivo, % L (lens) / % Lowering of dulcitol accumulation In Vivo, % N (sciatic nerve): 4 days, vs untreated galactosemic rats
# Text: The aldose reductase inhibiting property of the compounds of this invention and the utilization of the compounds in preventing, diminishing and alleviating diabetic complications by lowering polyol accumulation were also demonstrable in experiments using galactosemic rats, see Dvornik et al, Science, 182, 1146 (1973). Such experiments are exemplified hereinbelow after the listing of the following general comments pertaining to these experiments:
# (a) Four or more groups of six male rats, 50-70 g, Sprague-Dawley strain, were used. The first group, the control group, was fed a mixture of laboratory chow (rodent Laboratory Chow, Purina) and glucose at 20% (w/w %) concentration. The untreated galactosemic group and the drug-treated groups were fed a similar diet in which galactose is substituted for glucose. The test compound was either admixed to the diet or administered by gavage. In experiments involving compound administration in the diet, the average dose administered was calculated from the actual food intake of the animals in each group. The concentration of galactose in the diet of the treated groups was the same as that for the untreated galactosemic groups.
# (b) After four days, the amimals were killed by decapitation. The eyeballs were removed and punctured with a razor blade; the freed lenses were rolled gently on filter paper and weighed. The sciatic nerves were dissected as completely as possible and weighed. Both tissues when frozen can be kept up to two weeks before being analyzed for galactitol.
# (c) The polyol determination was performed by a modification of the procedure of M. Kraml and L. Cosyns, Clin. Biochem., 2, 373 (1969). Only two minor reagent changes were made: (a) the rinsing mixture was an aqueous 5% (w/v) trichloroacetic acid solution and (b) the stock solution was prepared by dissolving 25 mg of dulcitol in 100 mL of an aqueous trichloroacetic acid solution. [N.B.: For each experiment the average value found in the tissue from rats fed the glucose diet was subtracted from the individual values found in the corresponding tissue in galactose-fed rats to obtain the amount of polyol accumulated.]
# The figures under L, N, and D represent the percentage decrease of galactitol accumulation in the tissues of the lens, sciatic nerve, and diaphragm, respectively, for treated rats as compared to untreated rats.
Compound,inhibition at 10 µM (aldose reductase; 10^-5 M) [%],inhibition at 1 µM (aldose reductase; 10^-6 M) [%],further results
"CN1C(=O)c2ccc(Cl)cc2C12CC(=O)NC2=O (stereo not drawn) [Example 102, 6-Chloro-2-methylspiro[1H-isoindole-1,3'-pyrrolidine]-2',3,5'(2H)-trione]",91,80,"% Lowering of dulcitol accumulation In Vivo, % D (diaphragm) (galactosemic rats; 3 mg/kg): 43%; % Lowering of dulcitol accumulation In Vivo, % L (lens) (galactosemic rats; 3 mg/kg): 9%; % Lowering of dulcitol accumulation In Vivo, % N (sciatic nerve) (galactosemic rats; 3 mg/kg, sciatic nerve): 38%; comparison with sorbinil and tolrestat in the sciatic nerve (galactosemic rats; 3 mg/kg/day, sciatic nerve): comparable results to sorbinil at 4 mg/kg/day and tolrestat at 3 mg/kg/day in the sciatic nerve; % Lowering of dulcitol accumulation In Vivo, % D (diaphragm) (galactosemic rats; 25 mg/kg): 81%; % Lowering of dulcitol accumulation In Vivo, % L (lens) (galactosemic rats; 25 mg/kg): 51%; % Lowering of dulcitol accumulation In Vivo, % N (sciatic nerve) (galactosemic rats; 25 mg/kg, sciatic nerve): 84%"
O=C1CC2(C(=O)N1)c1cc(Cl)ccc1C(=O)N2Cc1ccc(Br)cc1F (stereo not drawn) [Example 121],85,70,
CN1C(=O)c2ccc(F)cc2C12CC(=O)NC2=O (stereo not drawn) [Example 123],,74,inhibition at 10 µM (aldose reductase): 93%
CN1C(=O)c2c(Cl)cccc2C12CC(=O)NC2=O (stereo not drawn) [Example 126],85,,inhibition at 1 µM (aldose reductase): 65%
CCN1C(=O)c2ccc(Cl)cc2C12CC(=O)NC2=O (stereo not drawn) [Example 128],78,37,
COc1ccc2c(c1)C(=O)N(C)C21CC(=O)NC1=O (stereo not drawn) [Example 129],83,56,
CSc1ccc2c(c1)C(=O)N(C)C21CC(=O)NC1=O (stereo not drawn) [Example 130],87,60,
CCCN1C(=O)c2cc(Cl)c(Cl)cc2C12CC(=O)NC2=O (stereo not drawn) [Example 131],49,12,
CN1C(=O)c2ccc([N+](=O)[O-])cc2C12CC(=O)NC2=O (stereo not drawn) [Example 132],91,77,
COC(=O)c1ccc2c(c1)C1(CC(=O)NC1=O)N(C)C2=O (stereo not drawn) [Example 134],87,49,
"O=C1NC(=O)[C@@]2(CCOc3ccc(F)cc32)N1 [Sorbinil, [(4S)2,3-dihydro-6-fluorospiro[4H1-benzopyran-4,4imidazoli-dine2',5dione, reference compound]",83,45,"% Lowering of dulcitol accumulation In Vivo, % D (diaphragm) (galactosemic rats; 4 mg/kg): 69%; % Lowering of dulcitol accumulation In Vivo, % L (lens) (galactosemic rats; 4 mg/kg): 46%; % Lowering of dulcitol accumulation In Vivo, % N (sciatic nerve) (galactosemic rats; 4 mg/kg, sciatic nerve): 55%"
"COc1ccc2c(C(=S)N(C)CC(=O)O)cccc2c1C(F)(F)F [Tolrestat, reference compound]",,,"% Lowering of dulcitol accumulation In Vivo, % D (diaphragm) (galactosemic rats; 3 mg/kg): 80%; % Lowering of dulcitol accumulation In Vivo, % N (sciatic nerve) (galactosemic rats; 3 mg/kg, sciatic nerve): 30%"

# Second part, led by results:
inhibition at 10 µM (aldose reductase; 10^-5 M) [%],inhibition at 1 µM (aldose reductase; 10^-6 M) [%],Compound,further results
40,6,"CN1C2(CC(=O)NC2=O)c2ccccc2S1(=O)=O (stereo not drawn) [Example 101, 2,3-Dihydro-2-methylspiro[benzisothiazole-3,3'-pyrrolidine]-2',5'-dione 1,1-Dioxide]",
45,5,O=C1CC2(C(=O)N1)c1ccccc1S(=O)(=O)N2Cc1ccccc1 (stereo not drawn) [Example 103],
59,25,O=C1CC2(C(=O)N1)c1ccccc1S(=O)(=O)N2Cc1ccc2ccccc2c1Br (stereo not drawn) [Example 112],
57,20,O=C1CC2(C(=O)N1)c1ccccc1S(=O)(=O)N2Cc1ccc2ccccc2c1 (stereo not drawn) [Example 113],
,45,CN1C(=O)c2ccccc2C12CC(=O)NC2=O (stereo not drawn) [Example 117],
88,72,"CN1C(=O)c2cc(Cl)ccc2C12CC(=O)NC2=O (stereo not drawn) [Example 120, 5-chloro-2-methylspiro[1H-isoindole-1,3'-pyrrolidine]-2',3,5'(2H)-trione]","% Lowering of dulcitol accumulation In Vivo, % N (sciatic nerve) (galactosemic rats; 3 mg/kg, sciatic nerve): 21%; % Lowering of dulcitol accumulation In Vivo, % D (diaphragm) (galactosemic rats; 81 mg/kg): 80%; % Lowering of dulcitol accumulation In Vivo, % L (lens) (galactosemic rats; 81 mg/kg): 54%; % Lowering of dulcitol accumulation In Vivo, % N (sciatic nerve) (galactosemic rats; 81 mg/kg, sciatic nerve): 77%"
95,82,"CN1C(=O)c2cc3ccccc3cc2C12CC(=O)NC2=O (stereo not drawn) [Example 124, 2-methylspiro[1H-benz[f]isoindole-1,3'-pyrrolidine]-2',3,5'(2H)-trione]","% Lowering of dulcitol accumulation In Vivo, % D (diaphragm) (galactosemic rats; 10 mg/kg): 59%; % Lowering of dulcitol accumulation In Vivo, % L (lens) (galactosemic rats; 10 mg/kg): 14%; % Lowering of dulcitol accumulation In Vivo, % N (sciatic nerve) (galactosemic rats; 10 mg/kg, sciatic nerve): 47%"
88,57,CN1C(=O)c2cccc(Cl)c2C12CC(=O)NC2=O (stereo not drawn) [Example 125],"% Lowering of dulcitol accumulation In Vivo, % D (diaphragm) (galactosemic rats; 3 mg/kg): 23%; % Lowering of dulcitol accumulation In Vivo, % D (diaphragm) (galactosemic rats; 6 mg/kg): 37%; % Lowering of dulcitol accumulation In Vivo, % L (lens) (galactosemic rats; 6 mg/kg): 7%; % Lowering of dulcitol accumulation In Vivo, % N (sciatic nerve) (galactosemic rats; 6 mg/kg, sciatic nerve): 21%; % Lowering of dulcitol accumulation In Vivo, % D (diaphragm) (galactosemic rats; 10 mg/kg): 47%; % Lowering of dulcitol accumulation In Vivo, % L (lens) (galactosemic rats; 10 mg/kg): 13%; % Lowering of dulcitol accumulation In Vivo, % N (sciatic nerve) (galactosemic rats; 10 mg/kg, sciatic nerve): 32%"
92,71,CN1C(=O)c2cc(Br)ccc2C12CC(=O)NC2=O (stereo not drawn) [Example 127],
89,61,Cc1ccc2c(c1)C(=O)N(C)C21CC(=O)NC1=O (stereo not drawn) [Example 133],
84,59,"Cc1cccc2c1C(=O)N(C)C21CC(=O)NC1=O (stereo not drawn) [Example 135, 2,4-dimethylspiro[1H-isoindole-1,3'-pyrrolidine]-2',3,5'(2H)-trione]","% Lowering of dulcitol accumulation In Vivo, % D (diaphragm) (galactosemic rats; 3 mg/kg): 37%; % Lowering of dulcitol accumulation In Vivo, % D (diaphragm) (galactosemic rats; 6 mg/kg): 57%; % Lowering of dulcitol accumulation In Vivo, % N (sciatic nerve) (galactosemic rats; 6 mg/kg, sciatic nerve): 50%; % Lowering of dulcitol accumulation In Vivo, % D (diaphragm) (galactosemic rats; 10 mg/kg): 69%; % Lowering of dulcitol accumulation In Vivo, % L (lens) (galactosemic rats; 10 mg/kg): 29%; % Lowering of dulcitol accumulation In Vivo, % N (sciatic nerve) (galactosemic rats; 10 mg/kg, sciatic nerve): 63%"
90,81,CN1C(=O)c2cc(-c3ccccc3)ccc2C12CC(=O)NC2=O (stereo not drawn) [Example 136],"% Lowering of dulcitol accumulation In Vivo, % D (diaphragm) (galactosemic rats; 3 mg/kg): 29%; % Lowering of dulcitol accumulation In Vivo, % D (diaphragm) (galactosemic rats; 6 mg/kg): 43%; % Lowering of dulcitol accumulation In Vivo, % L (lens) (galactosemic rats; 6 mg/kg): 13%; % Lowering of dulcitol accumulation In Vivo, % N (sciatic nerve) (galactosemic rats; 6 mg/kg, sciatic nerve): 27%; % Lowering of dulcitol accumulation In Vivo, % D (diaphragm) (galactosemic rats; 9 mg/kg): 55%; % Lowering of dulcitol accumulation In Vivo, % L (lens) (galactosemic rats; 9 mg/kg): 6%; % Lowering of dulcitol accumulation In Vivo, % N (sciatic nerve) (galactosemic rats; 9 mg/kg, sciatic nerve): 34%"

# Source: patent US4946858A, “Novel spirosuccinimides as aldose reductase inhibitors and antihyperglycemic agents” (American Home Products Corporation, priority 1989, dated 1990)
